Measured values from patent US9708314B2, “Heterocyclic amide compound” (NISSAN CHEMICAL INDUSTRIES, LTD., priority 2013, dated 2017).

What was measured:
Type in all cases: in vivo
Cyperus difformis = test: Test Example 3: herbicidal effect by application to foliage (Wagner pot, water depth 0.1-0.5 cm); settings: Nineteenth Table; application to foliage; application herbicide amount 320 g/ha
How it was run: (§1)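 Greenhouse pot test, 25–30 °C, alluvial soil. Sown seedlings grown 14 days then sprayed on leaves and stems with emulsion diluted to target g/ha. Rating at 3 weeks, 0–5 scale (0 ≤5%, 5 ≥90%).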

[1] = system: Echinochloa crus-galli var. crus-galli; test: as above; settings: Nineteenth Table; application to foliage; application herbicide amount 320 g/ha
How it was run: as §1

Leptochloa chinensis = test: as above; settings: Nineteenth Table; application to foliage; application herbicide amount 320 g/ha
How it was run: as §1

[2] = system: directly sowed Oryza sativa; test: Test Example 3: effect on crop by application to foliage (Wagner pot, water depth 0.1-0.5 cm); settings: Nineteenth Table; application to foliage; application herbicide amount 320 g/ha
How it was run: as §1

Abutilon theophrasti = test: Test Example 4: herbicidal effect by application to foliage (diluvial soil, plastic box)
How it was run: (§2)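 Plants were grown in sterilized diluvial soil in a greenhouse at 25-30° C for 14 days, then sprayed on stems and leaves with water-diluted emulsion formulation at set rates in g/ha. Weed control and crop injury were scored 3 weeks after treatment on a 0-5 herbicidal-ratio scale, from 0 (≤5%) to 5 (≥90%).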

Alopecurus myosuroides = test: as above
How it was run: as §2

Apera spica-venti. = test: as above
How it was run: as §2

Avena fatua = test: as above
How it was run: as §2

Chenopodium album = test: as above
How it was run: as §2

Digitaria ciliaris = test: as above
How it was run: as §2

[3] = system: Echinochloa crus-galli var. crus-galli; test: as above
How it was run: as §2

Galium spurium = test: as above
How it was run: as §2

Lolium multiflorum Lam. = test: as above
How it was run: as §2

Setaria viridis = test: as above
How it was run: as §2

Veronica persica = test: as above
How it was run: as §2

[4] = system: Beta vulgaris ssp. vulgaris; test: Test Example 4: effect on crop by application to foliage (diluvial soil, plastic box); settings: for f: effect on crop
How it was run: as §2

Brassica campestris L. = test: as above; settings: for g: effect on crop
How it was run: as §2

Glycine max = test: as above; settings: for c: effect on crop
How it was run: as §2

Triticum aestivum = test: as above; settings: for e: effect on crop
How it was run: as §2

Zea mays = test: as above; settings: for b: effect on crop
How it was run: as §2

[5] = system: directly sowed Oryza sativa; test: as above; settings: for d: Application herbicide amount 320 g/ha, effect on crop
How it was run: as §2

Amaranthus retroflexus = test: Test Example 4: herbicidal effect by application to foliage (diluvial soil, plastic box); settings: Application herbicide amount 320 g/ha; foliage application
How it was run: as §2

Stellaria media = test: as above; settings: application to foliage, application herbicide amount 320 g/ha
How it was run: as §2

[6] = Application herbicide amount 320 g/ha
[7] = Application herbicide amount 320 g/ha, foliage application
[8] = application to foliage, application herbicide amount 320 g/ha

| SMILES | E (herbicidal effect grade) (Cyperus difformis) | H (herbicidal effect grade) [1] | D (herbicidal effect grade) (Leptochloa chinensis) | b (effect on crop grade) [2] | M (Abutilon theophrasti; [6]) | J (Alopecurus myosuroides; [6]) | L (Apera spica-venti.; [6]) | I (Avena fatua; [6]) | O (Chenopodium album; [6]) | F (Digitaria ciliaris; [6]) | H [3, 6] | Q (Galium spurium; [6]) | K (Lolium multiflorum Lam.; [6]) | G (Setaria viridis; [6]) | R (Veronica persica; [6]) | f [4, 6] | g (Brassica campestris L.; [6]) | c (Glycine max; [6]) | e (Triticum aestivum; [6]) | b (Zea mays; [6]) | further results |
| --- | --- | --- | --- | --- | --- | --- | --- | --- | --- | --- | --- | --- | --- | --- | --- | --- | --- | --- | --- | --- | --- |
| CN(C)c1nnc2c(C(=O)Nc3nnco3)ccc(C(F)(F)F)n12 [1-103] | 5 (Herbicidal ratio of 90% or more (almost completely withered)) | 5 (Herbicidal ratio of 90% or more (almost completely withered)) | 5 (Herbicidal ratio of 90% or more (almost completely withered)) | 4 (Herbicidal ratio of 70% or more and less than 90%) | 4 (Herbicidal ratio of 70% or more and less than 90%) | 2 (Herbicidal ratio of 20% or more and less than 40%) | 3 (Herbicidal ratio of 40% or more and less than 70%) | 4 (Herbicidal ratio of 70% or more and less than 90%) | 5 (Herbicidal ratio of 90% or more (almost completely withered)) | 5 (Herbicidal ratio of 90% or more (almost completely withered)) | 5 (Herbicidal ratio of 90% or more (almost completely withered)) | 4 (Herbicidal ratio of 70% or more and less than 90%) | 3 (Herbicidal ratio of 40% or more and less than 70%) | 5 (Herbicidal ratio of 90% or more (almost completely withered)) | 5 (Herbicidal ratio of 90% or more (almost completely withered)) | 5 (Herbicidal ratio of 90% or more (almost completely withered)) | 5 (Herbicidal ratio of 90% or more (almost completely withered)) | 2 (Herbicidal ratio of 20% or more and less than 40%) | 3 (Herbicidal ratio of 40% or more and less than 70%) | 1 (Herbicidal ratio of 5% or more and less than 20%) | d [5]: 4 (Herbicidal ratio of 70% or more and less than 90%) |
| Cc1nnc(NC(=O)c2ccc(C(F)(F)F)n3c(CC4CC4)nnc23)o1 [1-104] | 4 (Herbicidal ratio of 70% or more and less than 90%) | 5 (Herbicidal ratio of 90% or more (almost completely withered)) | 5 (Herbicidal ratio of 90% or more (almost completely withered)) | 0 (Herbicidal ratio of 5% or less (almost no effect)) | 4 (Herbicidal ratio of 70% or more and less than 90%) | 1 (Herbicidal ratio of 5% or more and less than 20%) | 2 (Herbicidal ratio of 20% or more and less than 40%) | 4 (Herbicidal ratio of 70% or more and less than 90%) | 5 (Herbicidal ratio of 90% or more (almost completely withered)) | 5 (Herbicidal ratio of 90% or more (almost completely withered)) | 5 (Herbicidal ratio of 90% or more (almost completely withered)) | 3 (Herbicidal ratio of 40% or more and less than 70%) | 1 (Herbicidal ratio of 5% or more and less than 20%) | 5 (Herbicidal ratio of 90% or more (almost completely withered)) | 4 (Herbicidal ratio of 70% or more and less than 90%) | 4 (Herbicidal ratio of 70% or more and less than 90%) | 4 (Herbicidal ratio of 70% or more and less than 90%) | 3 (Herbicidal ratio of 40% or more and less than 70%) | 2 (Herbicidal ratio of 20% or more and less than 40%) | 0 (Herbicidal ratio of 5% or less (almost no effect)) | d [5]: 4 (Herbicidal ratio of 70% or more and less than 90%) |
| Cc1nnc(NC(=O)c2ccc(C(F)(F)F)n3c(N(C)C(C)C)nnc23)o1 [1-132] | 4 (Herbicidal ratio of 70% or more and less than 90%) | 5 (Herbicidal ratio of 90% or more (almost completely withered)) | 5 (Herbicidal ratio of 90% or more (almost completely withered)) | 3 (Herbicidal ratio of 40% or more and less than 70%) |  |  |  |  |  |  |  |  |  |  |  |  |  |  |  |  | M (Abutilon theophrasti) herbicidal effect grade (Abutilon theophrasti; [7]): 4 (Herbicidal ratio of 70% or more and less than 90%); J (Alopecurus myosuroides) herbicidal effect grade (Alopecurus myosuroides; [7]): 1 (Herbicidal ratio of 5% or more and less than 20%); N (Amaranthus retroflexus) herbicidal effect grade (Amaranthus retroflexus): 3 (Herbicidal ratio of 40% or more and less than 70%); L (Apera spica-venti.) herbicidal effect grade (Apera spica-venti.; [7]): 2 (Herbicidal ratio of 20% or more and less than 40%); I (Avena fatua) herbicidal effect grade (Avena fatua; [7]): 1 (Herbicidal ratio of 5% or more and less than 20%); O (Chenopodium album) herbicidal effect grade (Chenopodium album; [7]): 5 (Herbicidal ratio of 90% or more (almost completely withered)); F (Digitaria ciliaris) herbicidal effect grade (Digitaria ciliaris; [7]): 4 (Herbicidal ratio of 70% or more and less than 90%); H (Echinochloa crus-galli var. crus-galli) herbicidal effect grade [3, 7]: 5 (Herbicidal ratio of 90% or more (almost completely withered)); Q (Galium spurium) herbicidal effect grade (Galium spurium; [7]): 2 (Herbicidal ratio of 20% or more and less than 40%); K (Lolium multiflorum Lam.) herbicidal effect grade (Lolium multiflorum Lam.; [7]): 1 (Herbicidal ratio of 5% or more and less than 20%); G (Setaria viridis) herbicidal effect grade (Setaria viridis; [7]): 3 (Herbicidal ratio of 40% or more and less than 70%); R (Veronica persica) herbicidal effect grade (Veronica persica; [7]): 4 (Herbicidal ratio of 70% or more and less than 90%); f (Beta vulgaris ssp. vulgaris) effect on crop grade [4, 7]: 5 (Herbicidal ratio of 90% or more (almost completely withered)); g (Brassica campestris L.) effect on crop grade (Brassica campestris L.; [7]): 4 (Herbicidal ratio of 70% or more and less than 90%); d (Glycine max) effect on crop grade (Glycine max; [7]): 3 (Herbicidal ratio of 40% or more and less than 70%); e (Triticum aestivum) effect on crop grade (Triticum aestivum; [7]): 1 (Herbicidal ratio of 5% or more and less than 20%); c (Zea mays) effect on crop grade (Zea mays; [7]): 2 (Herbicidal ratio of 20% or more and less than 40%) |
| COC1CCC(c2nnc3c(C(=O)Nc4nnc(C)o4)ccc(C(F)(F)F)n23)CC1 (stereo not drawn) [1-169] |  | 5 (Herbicidal ratio of 90% or more (almost completely withered)) | 4 (Herbicidal ratio of 70% or more and less than 90%) | 1 (Herbicidal ratio of 5% or more and less than 20%) |  |  |  |  |  |  |  |  |  |  |  |  |  |  |  |  | M: herbicidal effect on Abutilon theophrasti (Abutilon theophrasti; [8]): 3 (Herbicidal ratio of 40% or more and less than 70%); J: herbicidal effect on Alopecurus myosuroides (Alopecurus myosuroides; [8]): 1 (Herbicidal ratio of 5% or more and less than 20%); L: herbicidal effect on Apera spica-venti. (Apera spica-venti.; [8]): 1 (Herbicidal ratio of 5% or more and less than 20%); I: herbicidal effect on Avena fatua (Avena fatua; [8]): 1 (Herbicidal ratio of 5% or more and less than 20%); O: herbicidal effect on Chenopodium album (Chenopodium album; [8]): 5 (Herbicidal ratio of 90% or more (almost completely withered)); F: herbicidal effect on Digitaria ciliaris (Digitaria ciliaris; [8]): 4 (Herbicidal ratio of 70% or more and less than 90%); H: herbicidal effect on Echinochloa crus-galli var. crus-galli [3, 8]: 5 (Herbicidal ratio of 90% or more (almost completely withered)); Q: herbicidal effect on Galium spurium (Galium spurium; [8]): 1 (Herbicidal ratio of 5% or more and less than 20%); K: herbicidal effect on Lolium multiflorum Lam. (Lolium multiflorum Lam.; [8]): 1 (Herbicidal ratio of 5% or more and less than 20%); G: herbicidal effect on Setaria viridis (Setaria viridis; [8]): 3 (Herbicidal ratio of 40% or more and less than 70%); P: herbicidal effect on Stellaria media (Stellaria media): 5 (Herbicidal ratio of 90% or more (almost completely withered)); R: herbicidal effect on Veronica persica (Veronica persica; [8]): 4 (Herbicidal ratio of 70% or more and less than 90%); f: effect on crop, Beta vulgaris ssp. vulgaris [4, 8]: 5 (Herbicidal ratio of 90% or more (almost completely withered)); g: effect on crop, Brassica campestris L. (Brassica campestris L.; [8]): 0 (Herbicidal ratio of 5% or less (almost no effect)); d: effect on crop, Glycine max (Glycine max; [8]): 5 (Herbicidal ratio of 90% or more (almost completely withered)); e: effect on crop, Triticum aestivum (Triticum aestivum; [8]): 1 (Herbicidal ratio of 5% or more and less than 20%); c: effect on crop, Zea mays (Zea mays; [8]): 1 (Herbicidal ratio of 5% or more and less than 20%); b: effect on crop, directly sowed Oryza sativa [5, 8]: 0 (Herbicidal ratio of 5% or less (almost no effect)) |
